# Patent US20230012368A1 (Hoffmann-La Roche Inc., priority 2018, published 2023)
# Structures can show the parent of a compound that is named as a salt.
# Tested on: Acinetobacter baumannii ATCC 17978
# Assay: Antimicrobial susceptibility testing: 90% growth inhibitory concentration (IC90) determination
# Assay type: cell-based
# Details: 90% growth inhibitory concentration; Acinetobacter baumannii ATCC17978; Iso-Sensitest broth, OD 600 nm over 16h; read-out: ATCC17978 IC90
# Method in brief: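 Compounds serially twofold diluted (e.g. 50 to 0.097 μM final) in Iso-Sensitest broth, inoculated at ~5×10^(5) CFU/ml, incubated at 35±2° C. OD600 read every 20 minutes over 16h. IC90 taken as concentration inhibiting 90% of growth during logarithmic phase.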
row,Compound,IC90
1,"tert-butyl 3-[[[4-[[3- [4- (difluoromethoxy) phenyl]imidazo[1,2- a]pyrazin-8- yl]amino]-2-methyl- benzoyl]amino] methyl] pyrrolidine-1- carboxylate [Example 47]",1.7 µM
2,"COc1ccc(-c2cnc3c(Nc4ccc(C(=O)NCC5CCOCC5)c(Cl)c4)nccn23)c(F)c1F [Example 40, 2-chloro-4-[[3-(2,3-difluoro-4-methoxy-phenyl)imidazo[1,2-a]pyrazin-8-yl]amino]-N-(tetrahydropyran-4-ylmethyl)benzamide; 2,2,2-trifluoroacetic acid]",0.18 µM

# Same assay, conditions: Acinetobacter baumannii, ATCC17978, 16 h, 90% growth inhibitory concentration; Acinetobacter baumannii ATCC17978; Iso-Sensitest broth, OD 600 nm over 16h; read-out: ATCC17978 IC90
row,Compound,IC90
1,"CCc1cc(Nc2nccn3c(-c4ccc(Oc5ccc(F)cn5)c(F)c4F)cnc23)ccc1C(=O)NCCNC(=O)[C@H](N)CCNC(=N)N [Example 429, N-[2-[[(2R)-2-amino-4-guanidino-butanoyl]amino]ethyl]-4-[[3-[2,3-difluoro-4-[(5-fluoro-2-pyridyl)oxy]phenyl]imidazo [1,2-a]pyrazin-8-yl]amino]-2-ethyl-benzamide; formic acid]",0.62 µM
2,"CCc1cc(Nc2nccn3c(-c4ccc(Oc5ncccn5)c(F)c4F)cnc23)ccc1C(=O)NCCNC(=O)CCN [Example 431, N-[2-(3-aminopropanoylamino)ethyl]-4-[[3-(2,3-difluoro-4-pyrimidin-2-yloxy-phenyl)imidazo[1,2-a]pyrazin-8-yl]amino]-2-ethyl-benzamide; formic acid]",0.53 µM
3,"COc1ccc(-c2cnc3c(Nc4ccc(C(=O)NCCCCCN)c(C)c4)nccn23)c(F)c1F [Example 491, N-(5-aminopentyl)-4-((3-(2,3-difluoro-4-methoxyphenyl)imidazo[1,2-a]pyrazin-8-yl)amino)-2-methylbenzamide hydrochloride]",0.041 µM
4,"COc1ccc(-c2cnc3c(Nc4ccc(C(=O)N5CCN(C(=O)[C@@H]6C[C@@](C)(O)CN6)CC5)c(C)c4)nccn23)c(F)c1F [Example 362, [4-[[3-(2,3-difluoro-4-methoxyphenyl)imidazo[1,2-a]pyrazin-8-yl]amino]-2-methylphenyl]-[4-[(2S,4R)-4-hydroxy-4-methylpyrrolidine-2-carbonyl]piperazin-1-yl]methanone]",0.08 µM
5,"CCc1cc(Nc2nccn3c(-c4ccc(OC)c(F)c4F)cnc23)ccc1C(=O)NCC(C)CNC(=O)[C@@H](N)CNC(=N)N (mixture of isomers) [Example 408, rac-N-(3-((R)-2-amino-3-guanidinopropanamido)-2-methylpropyl)-4-((3-(2,3-difluoro-4-methoxyphenyl)imidazo[1,2-a]pyrazin-8-yl)amino)-2-ethylbenzamide diformate]",0.41 µM
6,"CCc1cc(Nc2nccn3c(-c4ccc(Cl)cc4Cl)cnc23)ccc1C(=O)NCCNC(=O)[C@@H](N)CCCNC(=N)N [Example 346, N-[2-[[(2S)-2-amino-5-carbamimidamidopentanoyl]amino]ethyl]-4-[[3-(2,4-dichlorophenyl)imidazo[1,2-a]pyrazin-8-yl]amino]-2-ethylbenzamide;hydrochloride]",0.98 µM
7,"CCc1cc(Nc2nccn3c(-c4ccc(OC)c(F)c4F)cnc23)ccc1C(=O)NCCNC(=O)CN [Example 368, N-[2-[(2-aminoacetyl)amino]ethyl]-4-[[3-(2,3-difluoro-4-methoxyphenyl)imidazo[1,2-a]pyrazin-8-yl]amino]-2-ethylbenzamide]",0.12 µM
8,"Cc1cc(Nc2nccn3c(-c4ccc(OC(F)F)cc4)cnc23)ccc1C(=O)N(C)CCCCN1CCOCC1 [Example 208, 4-[[3-[4-(difluoromethoxy)phenyl]im-idazo[1,2-a]pyrazin-8-yl]amino]-N,2-dimethyl-N-(4-morpholin-4-ylbutyl)benzamide]",0.58 µM
9,"CCc1cc(Nc2nccn3c(-c4ccc(OC)c(F)c4F)cnc23)ccc1C(=O)NCCNC(=O)CCN [Example 364, N-[2-(3-aminopropanoylamino)ethyl]-4-[[3-(2,3-difluoro-4-methoxyphenyl)imidazo[1,2-a]pyrazin-8-yl]amino]-2-ethylbenzamide]",0.09 µM
10,"Cc1cc(Nc2nccn3c(-c4ccc(OC(F)F)cc4)cnc23)ccc1C(=O)N(CCO)CCO [Example 262, 4-[[3-[4-(difluoromethoxy)phenyl]im-idazo[1,2-a]pyrazin-8-yl]amino]-N,N-bis(2-hydroxyethyl)-2-methylbenzamide]",5 µM
11,"Cc1cc(Nc2nccn3c(-c4ccc(OC(F)F)cc4)cnc23)ccc1C(=O)NCCCCCCN [Example 21, N-(6-aminohexyl)-4-((3-(4-(difluoromethoxy)phenyl)imidazo[1,2-a]pyrazin-8-yl)amino)-2-methylbenzamide hydrochloride]",0.12 µM
12,"Cc1cc(Nc2nccn3c(-c4ccc(OCC#N)c(F)c4F)cnc23)ccc1C(=O)NCCNC(=O)[C@@H]1C[C@@H](O)CN1 [Example 365, (2S,4R)-N-[2-[[4-[[3-[4-(cyanomethoxy)-2,3-difluorophenyl]imidazo[1,2-a]pyrazin-8-yl]amino]-2-methylbenzoyl]amino]ethyl]-4-hydroxypyrrolidine-2-carboxamide]",0.09 µM
13,"CCc1cc(Nc2nccn3c(-c4ccc(OC)c(F)c4F)cnc23)ccc1C(=O)NCC(O)CNC(=O)CN (stereo not shown) [Example 374, N-[3-[(2-aminoacetyl)amino]-2-hydroxypropyl]-4-[[3-(2,3-difluoro-4-methoxyphenyl)imidazo[1,2-a]pyrazin-8-yl]amino]-2-ethylbenzamide]",0.19 µM
14,"COc1ccc(-c2cnc3c(Nc4ccc(C(=O)N(C)CC(=O)N5CCOCC5)c(C)c4)nccn23)cc1F [Example 8, 4-[[3-(3-fluoro-4-methoxy-phenyl)imidazo[1,2-a]pyrazin-8-yl]amino]-N,2-dimethyl-N-(2-morpholino-2-oxo-ethyl)benzamide]",2 µM
15,"CCc1cc(Nc2nccn3c(-c4ccc(OC(F)F)c(F)c4F)cnc23)ccc1C(=O)NCCCO [Example 293, 4-[[3-[4-(difluoromethoxy)-2,3-difluorophenyl]imidazo[1,2-a]pyrazin-8-yl]amino]-2-ethyl-N-(3-hydroxypropyl)benzamide]",0.12 µM
16,"Cc1cc(Nc2nccn3c(-c4ccc(Cl)c(F)c4F)cnc23)ccc1C(=O)N(C)CCCN [Example 228, N-(3-aminopropyl)-4-[[3-(4-chloro-2,3-difluorophenyl)imidazo[1,2-a]pyrazin-8-yl]amino]-N,2-dimethylbenzamide;hydrochlo-ride]",1.2 µM
17,"CCc1cc(Nc2nccn3c(-c4ccc(OC(F)F)c(F)c4F)cnc23)ccc1C(=O)NCCNC(=O)[C@H](N)CCCNC(=N)N [Example 132, N-[2-[[(2R)-2-amino-5-guanidino-pentanoyl]amino]ethyl]-4-[[3-[4-(difluoromethoxy)-2,3-difluoro-phenyl]imidazo[1,2-a]pyrazin-8-yl]amino]-2-ethyl-benzamide formate]",0.23 µM
18,"CNC(=O)c1ccc(Nc2nccn3c(-c4ccc(OC(F)F)cc4)cnc23)cc1COCCO [Example 168, 4-[[3-[4-(difluoromethoxy)phenyl]imidazo[1,2-a]pyrazin-8-yl]amino]-2-(2-hydroxyethoxymethyl)-N-methyl-benzamide]",2 µM
19,"CCc1cc(Nc2nccn3c(-c4ccc(OCC#N)c(F)c4F)cnc23)ccc1C(=O)NCCNC(=O)CC(O)CN (stereo not shown) [Example 142, N-[2-[(4-amino-3-hydroxy-butanoyl)amino]ethyl]-4-[[3-[4-(cyanomethoxy)-2,3-difluoro-phenyl]imidazo[1,2-a]pyrazin-8-yl]amino]-2-ethyl-benzamide formate]",0.13 µM
20,"CCc1cc(Nc2nccn3c(-c4ccc(OCC#N)c(F)c4F)cnc23)ccc1C(=O)NCCNC(=O)[C@@H](N)CO [Example 135, N-[2-[[(2S)-2-amino-3-hydroxy-propanoyl]amino]ethyl]-4-[[3-[4-(cyanomethoxy)-2,3-difluoro-phenyl]imidazo[1,2-a]pyrazin-8-yl]amino]-2-ethyl-benzamide formate]",0.09 µM
21,"CCN(CC)C(=O)c1ccc(Nc2nccn3c(-c4ccc(OC)cc4)cnc23)cc1 [Example 227, N,N-diethyl-4-[[3-(4-methoxyphenyl)imidazo[1,2-a]pyrazin-8-yl]amino]benzamide]",0.61 µM
22,"CCc1cc(Nc2nccn3c(-c4ccc(OC)c(F)c4F)cnc23)ccc1C(=O)NCCNC(=O)NCCN [Example 339, N-[2-(2-aminoethylcarbamoylamino)ethyl]-4-[[3-(2,3-difluoro-4-methoxyphenyl)imidazo[1,2-a]pyrazin-8-yl]amino]-2-ethylbenzamide]",0.56 µM
23,"CCc1cc(Nc2nccn3c(-c4ccc(OCC#CCN)c(F)c4F)cnc23)ccc1C(=O)NCCCN [Example 287, 4-[[3-[4-(4-aminobut-2-ynoxy)-2,3-difluorophenyl]imidazo[1,2-a]pyrazin-8-yl]amino]-N-(3-aminopropyl)-2-ethylbenzamide]",2.9 µM
24,"COc1ccc(-c2cnc3c(Nc4ccc(C(=O)NCCCCCCN)c(C)c4)nccn23)c(F)c1F [Example 493, N-(6-aminohexyl)-4-((3-(2,3-difluoro-4-methoxyphenyl)imidazo[1,2-a]pyrazin-8-yl)amino)-2-methylbenzamide hydrochloride]",0.035 µM
25,"COc1ccc(-c2cnc3c(Nc4ccc(C(=O)NCCN)c(C)c4)nccn23)cc1 [Example 31, N-(2-aminoethyl)-4-((3-(4-methoxyphenyl)imidazo [1,2-a]pyrazin-8-yl)amino)-2-methylbenzamide]",2.9 µM
26,"CCc1cc(Nc2nccn3c(-c4ccc(OCC#N)c(F)c4F)cnc23)ccc1C(=O)NCCNC(=O)[C@@H](N)CCCN [Example 140, 4-[[3-[4-(cyanomethoxy)-2,3-difluoro-phenyl]imidazo[1,2-a]pyrazin-8-yl]amino]-N-[2-[[(2S)-2,5-diaminopentanoyl]amino]ethyl]-2-ethyl-benzamide formate]",0.17 µM
